Literature values in US20070122486A1, “Nanoparticulate insulin” (Elan Pharma International Limited, priority 2001, published 2007).

Conditions: physiological conditions

## Soluble insulin: Available soluble composition of insulin, a 5.8 kD protein hormone
  duration of activity: about six
  onset of activity: about 30 minutes
